The record followed here is patent US11780823B2, “Indazole-3-carboxamides and their use as Wnt/β-catenin signaling pathway inhibitors” (BioSplice Therapeutics, Inc., priority 2011, dated 2023).

The subject of this assay is Wnt activity (wnt-responsive SP5 promoter luciferase reporter in SW480 cells). Nature of the assay: Wnt reporter screening assay: SP5 promoter-driven firefly luciferase in SW480 cells. Particulars: Homo sapiens; SW480 colon cancer cells with SP5 promoter luciferase reporter; half-log dilutions, ten micromolar top concentration; read 24-40 h after compound addition; normalized to DMSO; read-out: Wnt inhibition. The format is cell-based. The method, boiled down: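 Described as a possible protocol: SW480 cells (APC-mutant colon cancer) stably carrying an SP5 promoter (eight TCF/LEF sites) firefly luciferase reporter, ~10,000 per well. BrightGlo luminescence normalized to DMSO wells for IC50.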

On to `CN(C)Cc1cncc(-c2ccc3[nH]nc(C(=O)Nc4ccc(N5CCCC5)nc4)c3c2)c1` [Compound 190, 5-(5-((Dimethylamino)methyl)pyridin-3-yl)-N-(6-(pyrrolidin-1-yl)pyridin-3-yl)-1H-indazole-3-carboxamide], for which the IC50 stood at 1200 nM.
